Assay results from patent US20220142955A1, “METHODS OF TREATING ORGANIC ACIDEMIAS” (HemoShear Therapeutics, Inc., priority 2019, published 2022).
Read-outs that look alike come from different tables or passages of the source.

Experiments:
[1] = tested on: primary hepatocytes of methylmalonic acidemia patients; experiment: Propionyl-CoA and methylmalonyl-CoA from various sources in MMA primary hepatocytes (Examples 4, 5); assay type: cell-based, human; conditions: for EC50: Homo sapiens, Hepatocyte
Description: (§1) Primary hepatocytes isolated from livers of methylmalonic acidemia patients are treated with increasing doses of compound 1 (0, 1, 3, 10, 30, 100, 300, 1000 μM) for 30 minutes. […] At the end of the challenge period, media is removed and the cells are lysed with 70% MCCN and 0.1% TFA containing 100 μM of ethymalonyl-CoA as an internal standard and harvested. Cell lysates are processed for HTMS/MS analysis.
as §1, with “compound 5” for “compound 1”, “(0, 0.1, 0.3,” for “(0,”, “30, 100” for “30, 100, 300, 1000”, “30 min.” for “30 minutes.”, “70% MeCN” for “70% MCCN”

[2] = tested on: primary hepatocytes of propionic acidemia patients; experiment: Propionyl-carnitine (C3) in PA primary hepatocytes (Example 6); assay type: cell-based, human; conditions: for EC50: Homo sapiens, Hepatocyte, read-out: concentration of propionyl-carnitine EC50
Description: Primary hepatocytes isolated from livers of propionic acidemia patients are treated with increasing doses of compound 1 (0, 1, 3, 10, 30, 100, 300, 1000 μM) for 30 min. After 30 min the cells are challenged with ^13C-KIVA (1 mM) and ^13C-isoleucine (3 mM) for 60 minutes. At the end of the challenge period, media is removed and the cells are washed with ice cold PBS. Cells are lysed with 70% MeCN containing 4 nM of hexanoyl-carnitine as an internal standard (lysis buffer), harvested and processed for HTMS/MS analysis.

[3] = tested on: primary hepatocytes of propionic acidemia patients; experiment: Reduction of 13C-propionyl-CoA and accumulation of compound-CoA ester after 13C-isoleucine challenge (Example 1); assay type: cell-based; conditions: Homo sapiens, Hepatocyte, 13C-labeled isoleucine, compound 0 μM to 1,000 μM
Description: Primary hepatocytes are isolated from explanted livers of propionic acidemia patients and are cultured on day 1 using standard protocols (see: Chapman et al. “Recapitulation of metabolic defects in a model of propionic acidemia using patient-derived primary hepatocytes” Mol. Genet. Metab. 2016, 117(3), 355-362). Approximately 2×10^5 hepatocytes are plated into each well of a collagen-coated 48-well tissue culture plate and pre-conditioned in a custom Modified Corning culture media for Hepatocells (Corning) without low levels of branched chain amino acids for 72 hours. On day 4, hepatocytes are treated with increasing doses of compound (0, 1, 3, 10, 30, 100, 300, 1000 μM) for 30 min. After 30 min the cells are challenged with ^13C-isoleucine (3 mM). At the end of the challenge period, cells are lysed in 100 μL of […] acetonitrile (MeCN) and 0.1% trifluoroacetic acid (TFA) containing 100 μM of ethymalonyl-CoA as an internal standard. Cells are removed from the well by scraping into the lysis buffer. The collected cellular samples are then dispensed into a microfuge tube. The plate wells are washed again with lysis buffer to ensure the remaining cells are dislocated from the well. All remaining collected cells are then moved into the centrifuge tube. The cellular samples are flash frozen in liquid nitrogen and stored at −80° C. To begin processing, the frozen cellular lysates are thawed on ice and vortexed. The samples are centrifuged at 20,000 g for 10 min at 4° C. and the total volume of supernatant is transferred to a no-bind 96-well plate on ice. The samples are dried under vacuum for about 2 hours and then resuspended in 150 μL of water in each well. Total volumes of samples are filtered through a prepared Durapore filter plate into a no-bind 96-well plate. The filtered samples are stored at −80° C. for HTMS/MS analysis.

[4] = tested on: primary hepatocytes of propionic acidemia patients; experiment: Propionyl-CoA from various sources in PA primary hepatocytes (Examples 2, 3); assay type: cell-based, human; conditions: for EC50: Homo sapiens, Hepatocyte, read-out: concentration of propionyl-CoA EC50
Description: Primary hepatocytes isolated from livers of propionic acidemia patients are treated with increasing doses of compound 1 (0, 1, 3, 10, 30, 100, 300, 1000 μM) for 30 min. After 30 min the cells are challenged with the different sources of P-CoA, which may include ^13C-ketoisovaleric acid (KIVA) (1 mM), […] (ILE) (3 mM), ^13C-threonine (THR) (5 mM), ^13C-methionine (MET) (5 mM), ^13C-heptanoate (100 μM), or ^13C-propionate (5 mM) for 60 minutes. At the end of the challenge period, media is removed and the cells are lysed with 70% MeCN and 0.1% TFA containing 100 μM of ethymalonyl-CoA as an internal standard and harvested. Cell lysates are processed for HTMS/MS analysis.
Primary hepatocytes isolated from livers of propionic acidemia patients are treated with increasing doses of compound 5 (0, 0.1, 0.3, 1, 3, 10, 30, 100 μM) for 30 minutes. After 30 minutes the cells are challenged with the different sources of P-CoA, which may include ^13C-KIVA (1 mM), ^13C-isoleucine (3 mM), ^13C-threonine (5 mM), ^13C-methionine (5 mM), ^13C-heptanoate (100 μM), or ^13C-propionate (5 mM) for 60 minutes. At the end of the challenge period, media is removed and the cells are lysed with 70% MeCN and 0.1% TFA containing 100 μM of ethymalonyl-CoA as an internal standard and harvested. Cell lysates are processed for HTMS/MS analysis.

[5] = tested on: primary hepatocytes of propionic acidemia patients; experiment: Reduction of propionyl-CoA with compounds 8 and 9 (Example 9); assay type: cell-based, human; conditions: PA hepatocytes; 13C-isoleucine (3 mM)
Description: Primary hepatocytes isolated from livers of propionic acidemia patients are treated with increasing doses of compound 1 (0, 0.1, 0.3, 1, 3, 10, 30, 100 μM) for 30 minutes. After 30 minutes, the cells are challenged with ^13C-isoleucine (3 mM) for 60 minutes. At the end of the challenge period, media is removed and the cells are lysed with 70% MeCN and 0.1% TFA containing 100 μM of ethymalonyl-CoA as an internal standard and harvested. Cell lysates are processed for HTMS/MS analysis.

[6] = read-out: concentration of 12C-Compound-CoA ester EC50
[7] = read-out: concentration of 13C-propionyl-CoA EC50

What does the source list for CCCC(CCC)C(=O)O [Compound 1, 2-propylpentanoic acid (valproic acid)]?
intracellular propionyl-CoA and methylmalonyl-CoA from all sources investigated [1]: dose-dependent reduction; EC50 ([1]; 100 μM 13C-propionate, read-out: concentration of methylmalonyl-CoA EC50): 89.4 µM; EC50 ([1]; 100 μM 13C-propionate, read-out: concentration of propionyl-CoA EC50): 68.2 µM; EC50 ([1]; 1 mM 13C-KIVA, read-out: concentration of methylmalonyl-CoA EC50): 31.3 µM; EC50 ([1]; 1 mM 13C-KIVA, read-out: concentration of propionyl-CoA EC50): 30.9 µM; EC50 ([1]; 3 mM 13C-ILE, read-out: concentration of methylmalonyl-CoA EC50): 25.5 µM; EC50 ([1]; 3 mM 13C-ILE, read-out: concentration of propionyl-CoA EC50): 30.8 µM; EC50 ([1]; 5 mM 13C-MET, read-out: concentration of methylmalonyl-CoA EC50): 47.3 µM; EC50 ([1]; 5 mM 13C-MET, read-out: concentration of propionyl-CoA EC50): 50.7 µM; EC50 ([1]; 5 mM 13C-THR, read-out: concentration of methylmalonyl-CoA EC50): 25.6 µM; EC50 ([1]; 5 mM 13C-THR, read-out: concentration of propionyl-CoA EC50): 13.9 µM; intracellular propionyl-carnitine (C3) from 13C-KIVA or 13C-isoleucine [2]: dose-dependent reduction; EC50 ([2]; 1 mM 13C-KIVA): 44.3 µM; EC50 ([2]; 3 mM 13C-ILE): 54.3 µM; EC50 [3, 6]: 12.5 µM; EC50 [3, 7]: 12.4 µM; intracellular propionyl-CoA from all sources investigated [4]: dose-dependent reduction; EC50 ([4]; 100 μM 13C-heptanoate): 48.2 µM; EC50 ([4]; 1 mM 13C-KIVA): 14.2 µM; EC50 ([4]; 3 mM 13C-ILE): 15 µM; EC50 ([4]; 5 mM 13C-MET): 7.14 µM; EC50 ([4]; 5 mM 13C-THR): 9.2 µM; EC50 ([4]; 5 mM 13C-propionate): 21.2 µM

What does the source list for CCCC(CC)C(=O)O (centres unmarked) [Compound 2, 2-ethylpentanoic acid]?
EC50 [3, 6]: 1.24 µM; EC50 [3, 7]: 1.23 µM

With CCCC(C)C(=O)O (centres unmarked) [Compound 3, 2-methylpentanoic acid] as the compound, how does the EC50 [3, 6] read?
Its EC50 is 27.4 µM.

What about the EC50 [3, 7] of the same compound?
The EC50 was 13 µM.

How did the EC50 [3, 6] turn out when CCC(CC)C(=O)O [Compound 4, 2-ethylbutanoic acid] was run?
The EC50 was 10.3 µM.

What about the EC50 [3, 7] of the same compound?
The EC50 was 32.4 µM.

Which results are given for CC(C)(C)CC(=O)O [Compound 6, 3,3-dimethylbutanoic acid]?
EC50 [3, 6]: 0.48 µM; EC50 [3, 7]: 0.91 µM

How did the EC50 [3, 6] turn out when CC1(CC(=O)O)CC1 [Compound 7, 2-(1-methylcyclopropyl) acetic acid] was run?
Its EC50 is 10.2 µM.

And the EC50 [3, 7]?
The EC50 was 28.8 µM.

For CC(C)(C)C(=O)O [Compound 8, 2,2,dimethylpropionic acid], which “intracellular propionyl-CoA” value [5] is on record?
The value was “dose-dependent reduction”.

With CCCC(C)(C)C(=O)O [Compound 9, 2,2-dimethylpentanoic acid] as the compound, how does the “intracellular propionyl-CoA” value [5] read?
The value was “dose-dependent reduction”.
